Measured values reported in article PMC6690547, “The triphenylmethane dye brilliant blue G is only moderately effective at inhibiting amyloid formation by human amylin or at disaggregating amylin amyloid fibrils, but interferes with amyloid assays; Implications for inhibitor design” (PLoS ONE, 2019).

Target: T1, human amylin (h-amylin) (Homo sapiens, UniProt P10997)
T1 construct: gene IAPP; synthetic 37 residue polypeptide with a disulfide bridge connecting Cys-2 and Cys-7 and an amidated C-terminus; measured as amyloid fibrils
T1 sequence (P10997 34-70): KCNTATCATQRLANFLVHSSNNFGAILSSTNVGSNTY
Assay: co-sedimentation of BBG with h-amylin amyloid fibrils (supernatant absorbance at […] nm); supported by TEM/AFM of inhibited and remodeled fibrils and loss of thioflavin-T signal
Format: binding
From the text: The result is consistent with binding of BBG to h-amylin amyloid fibers

CCOc1ccc(Nc2ccc(/C(=C3C=C/C(=[N+](/CC)Cc4cccc(S(=O)(=O)[O-])c4)C=C/3C)c3ccc(N(CC)Cc4cccc(S(=O)(=O)O)c4)cc3C)cc2)cc1 [BBG, Sodium;3-[[4-[(E)-[4-(4-ethoxyanilino)phenyl]-[4-[ethyl-[(3-sulfonatophenyl)methyl]azaniumylidene]-2-methylcyclohexa-2,5-dien-1-ylidene]methyl]-N-ethyl-3-methylanilino]methyl]benzenesulfonate]
co-sedimentation of BBG with h-amylin amyloid fibrils (supernatant absorbance at): significant BBG pellets with the fiber. The result is consistent with binding of BBG to h-amylin amyloid fibers
